The values that follow come from article PMC11554305, “Functional identification of soluble uric acid as an endogenous inhibitor of CD38” (eLife, 2024).

In general, Ki refers to the equilibrium dissociation constant of an inhibitor or competing ligand from its target.

One data set concerns the target uricase. The arrangement: method as in Fridovich, 1965. The following applies: ref Fridovich, 1965; cited from earlier work.
The test system of a further data set is WT BMDMs. Put plainly: Intracellular NAD+ in primed WT BMDMs treated with NMN. The format is cell-based, mouse. The following applies: sUA 100, 200 and 500 μM; NMN 100 μM, 6 hr. The procedure:
Bone marrow cells were isolated from 10- to 12-week-old WT or CD38 KO mice (both male and female) by washing the marrow cavity with sterile PBS. The collected bone marrow cells were filtered by 70 μm strainers and then centrifuged at 1000 rpm, 4°C for 5 min. The cell pellet was resuspended in 2 mL red blood cell (RBC) lysis buffer for 30 s, then 8 mL complete RPMI-1640 medium (10% FBS, 1% penicillin/streptomycin, and 50 μM 2-mercaptoethanol) was added to terminate the lysis. After 5 min centrifugation at 1000 rpm, 4°C, the cells were resuspended in fresh complete RPMI-1640 medium and maintained for 4 hr in an incubator. Adherent cells were discarded, whereas non-adherent cells were cultured in complete RPMI-1640 medium containing 20 ng/mL M-CSF. After 3-day differentiation, the medium was replaced with fresh complete RPMI-1640 medium containing 20 ng/mL M-CSF. On the 7th day, BMDMs were collected for subsequent experiments. BMDMs were primed with 100 ng/mL ultrapure LPS for 4 hr for canonical inflammasome assay. For metabolic assay of NMN, BMDMs were primed with 100 ng/mL ultrapure LPS for 8 hr to induce higher protein expression of CD38.
WT BMDMs were primed with 100 ng/mL ultrapure LPS for 8 hr. Then, the cells were washed twice with sterile PBS. Afterward, the cells were incubated in control or 100 μM NMN-supplemented RPMI-1640 medium in the presence of sUA or 78c. […]

The target of the next data set is T1, CD38 (Homo sapiens, UniProt P28907).
T1 construct: cells or tissues were directly homogenized in blank reaction buffer on ice; host or cells: THP-1
T1 sequence (P28907 1-300): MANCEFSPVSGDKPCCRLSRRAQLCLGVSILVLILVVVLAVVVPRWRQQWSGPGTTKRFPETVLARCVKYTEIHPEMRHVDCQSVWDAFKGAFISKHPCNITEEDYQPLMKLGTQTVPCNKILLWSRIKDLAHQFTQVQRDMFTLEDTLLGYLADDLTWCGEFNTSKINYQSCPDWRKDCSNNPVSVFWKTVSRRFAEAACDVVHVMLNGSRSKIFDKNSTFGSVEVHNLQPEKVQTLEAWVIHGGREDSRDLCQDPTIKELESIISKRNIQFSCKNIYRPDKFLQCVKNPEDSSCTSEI
In words: Hydrolase activity of THP-1 cells. The format is biochemical. The following applies: sUA 0–500 μM, Figure 1—figure supplement 1A. The procedure: (§1) The hydrolase activity of CD38 was measured according to a previous report ([de Oliveira et al., 2018]) with minor modifications. CD38 hydrolase activity was measured using 50 μM ε-NAD^+ as a substrate in hydrolase reaction buffer (250 mM sucrose, 40 mM Tris-HCl, pH 7.4). Briefly, cells or tissues were directly homogenized in blank reaction buffer on ice, and recombinant hCD38 was diluted in blank reaction buffer for subsequent assays. The tissue homogenates were centrifuged to collect the supernatant for enzyme assays. The loading volume of enzyme was 4–30 μL, the total volume of the reaction system was 3 mL. To detect enzyme inhibition, except when specified, the ligands were directly dissolved in hydrolase reaction buffer before pH adjustment, after which, the pH was immediately adjusted to 7.4. All reaction buffers, with or without ligands, were freshly prepared before each assay. For measurement of hydrolase activity, 3 mL reaction buffer containing enzyme, ε-NAD^+, and ligands at indicated concentrations was maintained at 37°C with constant stirring.
(§2) The reaction buffer for hydrolase or cyclase assays was excited at 300 nm, and fluorescence emission was measured every second at 410 nm by Shimazu RF-6000 spectrofluorometer. Hydrolase or cyclase activity was calculated from the linear portion of the time course by fitting a linear function to the data points recorded within 5 min.

The target of data set [1] is T2, recombinant human CD38 (hCD38) (Homo sapiens, UniProt P28907).
T2 construct: the commercial recombinant hCD38 without a transmembrane region was partially used in this study; purchased Sino Biological 10818-H08H
T2 sequence (P28907 43-300 limits assumed): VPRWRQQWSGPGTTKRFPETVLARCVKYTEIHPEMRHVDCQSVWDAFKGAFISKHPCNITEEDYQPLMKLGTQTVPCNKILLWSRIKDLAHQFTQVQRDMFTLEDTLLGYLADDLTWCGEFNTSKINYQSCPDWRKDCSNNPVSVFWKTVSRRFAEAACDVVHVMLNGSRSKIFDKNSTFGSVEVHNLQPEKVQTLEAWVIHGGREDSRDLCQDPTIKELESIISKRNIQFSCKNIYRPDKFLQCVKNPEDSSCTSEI
In words: CD38 hydrolase activity, recombinant hCD38 (ε-NAD+ substrate). The format is biochemical. The following applies: sUA 0–500 μM, Figure 1B. The procedure:
as §1, §2

The next data set has as its system primed WT BMDMs. In words: Canonical inflammasome assay, IL-1β release in primed BMDMs. It counts as cell-based, mouse. The procedure:
Human IL-1β, mouse IL-1β, IL-6, IL-18, TNF-α, and CXCL1 levels were measured according to the protocols provided by the manufacturer. Serum samples were diluted before ELISA when applicable. In this study, all the samples were frozen after collection and thawed before ELISA.
WT and CD38 KO BMDMs were primed with 100 ng/mL ultrapure LPS for 4 hr. Subsequently, primed BMDMs were pre-incubated with or without sUA for 2 hr, the cells were then washed twice with sterile PBS and were stimulated with nigericin, MSU crystals, or cLPS in serum-free RPMI-1640 medium.
After stimulation, the culture medium was collected and centrifuged at 3000 rpm, 4°C for 5 min, the supernatant was collected and stored at –30°C until ELISA.

For data set [2], the target named is T3, poly(ADP-ribose) polymerase (PARP) (Homo sapiens, UniProt P09874).
T3 construct: purchased R&D Systems 4677-096-K
T3 sequence (P09874 whole entry): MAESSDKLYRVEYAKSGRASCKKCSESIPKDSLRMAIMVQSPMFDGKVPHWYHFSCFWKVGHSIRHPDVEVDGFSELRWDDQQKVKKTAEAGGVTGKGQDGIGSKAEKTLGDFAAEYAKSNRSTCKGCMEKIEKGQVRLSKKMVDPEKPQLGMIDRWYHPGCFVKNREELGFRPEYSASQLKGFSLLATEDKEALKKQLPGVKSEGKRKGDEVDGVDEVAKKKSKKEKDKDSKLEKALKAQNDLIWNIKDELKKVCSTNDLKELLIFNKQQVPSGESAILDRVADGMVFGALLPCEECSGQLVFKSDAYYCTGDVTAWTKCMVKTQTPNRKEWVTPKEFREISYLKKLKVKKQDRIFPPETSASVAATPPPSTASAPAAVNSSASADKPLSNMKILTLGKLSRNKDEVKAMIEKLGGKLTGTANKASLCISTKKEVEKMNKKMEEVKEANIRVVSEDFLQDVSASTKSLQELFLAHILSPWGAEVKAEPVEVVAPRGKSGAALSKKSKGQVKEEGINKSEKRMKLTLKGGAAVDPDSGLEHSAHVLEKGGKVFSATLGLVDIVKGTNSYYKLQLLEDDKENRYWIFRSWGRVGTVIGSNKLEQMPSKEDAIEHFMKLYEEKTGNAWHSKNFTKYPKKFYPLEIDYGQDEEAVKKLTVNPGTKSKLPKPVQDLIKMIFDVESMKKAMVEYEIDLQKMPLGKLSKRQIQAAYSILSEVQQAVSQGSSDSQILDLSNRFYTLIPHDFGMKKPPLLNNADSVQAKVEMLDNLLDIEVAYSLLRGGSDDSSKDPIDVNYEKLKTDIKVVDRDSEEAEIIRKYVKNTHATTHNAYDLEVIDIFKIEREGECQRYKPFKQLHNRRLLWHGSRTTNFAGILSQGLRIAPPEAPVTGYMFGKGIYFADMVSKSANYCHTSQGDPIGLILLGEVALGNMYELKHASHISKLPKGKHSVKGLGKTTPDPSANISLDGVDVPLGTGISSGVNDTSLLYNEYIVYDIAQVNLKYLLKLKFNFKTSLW
In words: PARP activity (colorimetric kit). The format is biochemical. The following applies: Figure 3—figure supplement 2C. The procedure: The activities of NAMPT and PARP were measured using commercial kits, HT Universal Colorimetric PARP Assay Kit, and CycLex NAMPT Colorimetric Assay Kit Ver.2. The solutions of ligands were freshly prepared (pH was adjusted to 7.4) and were immediately used for enzyme assays.

Data set [3] is described as follows: Solubility and crystal precipitation in solution. It counts as physicochemical. The procedure:
Guanosine was dissolved in DMSO and diluted in the reaction buffer for subsequent assays.
MSU crystals were prepared by the recrystallization of oversaturated sUA according to a previous report ([Martinon et al., 2006]). Improper preparation of sUA solution may introduce crystals to cause false-positive or false-negative results. […] In this study, the sUA solution was prepared according to an improved protocol ([Ma et al., 2020]). […] Then, sUA solution was immediately filtered by 0.2 μm filters and diluted to experimental concentration (up to 10 mg/dL, 595 μM) for cell experiments. […]

For `O=C(O)c1nc(=O)[nH]c(=O)[nH]1` [OA, oxonic acid, reference compound], the Ki for uricase entry at uricase was “nanomolar range”.

Consider `O=c1[nH]c(=O)c2[nH]c(=O)[nH]c2[nH]1` [sUA, uric acid], for which the “Intracellular NAD+ in primed WT BMDMs treated with NMN” value in the data set with WT BMDMs was “failed to boost intracellular NAD^+”. The inhibition constant Ki was 75.5 µM at CD38 and 65.7 µM in data set [1]. For the same compound, the “Induction of IL-1β release by sUA itself” value with primed WT BMDMs (sUA 100, 200 and 500 μM, 6 hr) is “did not induce IL-1β release”. In addition, the “Inflammasome activation (IL-1β release)” value in the data set with primed WT BMDMs (sUA 100 or 200 μM pre-incubation 2 hr) is recorded as “hardly suppressed inflammasome activation”. For the same compound, the “Effect on PARP activity” value in data set [2] was “without affecting the activities”. The “Crystal precipitation in stock solution” value was “Visible crystals were observed” in data set [3] (5 mg/mL in NaOH without pH adjustment, 2-month storage at 4°C) and “Crystals were immediately precipitated after dissolution” in data set [3] (50 mg/mL in NaOH without pH adjustment). Besides, in data set [3] (long-term storage at 4°C), the “Crystal precipitation in high-concentration stock solutions” value was “promoted crystal precipitation”.
